# From patent US9725445B2, “Cycloalkyl nitrile pyrazolo pyridones as Janus kinase inhibitors” (Merck Sharp & Dohme Corp., priority 2013, dated 2017)
# Like-named read-outs stand apart in the source and are kept apart here.
# Key:
# JAK1 = JAK1 (Homo sapiens (Human), UniProt P23458); assay: Jak biochemical HTRF assay, JAK1; settings: recombinant GST-tagged catalytic domain
# JAK2 = JAK2 (Homo sapiens (Human), UniProt O60674); assay: Jak biochemical HTRF assay, JAK2; settings: recombinant GST-tagged catalytic domain
# Description: Jak Biochemical HTRF Assay Protocol
# The ability of compounds to inhibit the activity of JAK1, JAK2, JAK3, and Tyk2 was measured using a recombinant purified GST-tagged catalytic domain for each enzyme (Invitrogen JAK1 #M4290, JAK2 #M4290, JAK3 #M4290, Tyk2 #M4290) in an HTRF format biochemical assay. […] The basic assay protocol is as follows: First, 250 nL of diluted compounds in DMSO were dispensed into the wells of a dry 384-well Black plate (Greiner #781076) using a Labcyte Echo 555 acoustic dispenser. Subsequent reagent additions employed an Agilent Bravo. […] After equilibration, 2 μL of 10×ATP in 1× assay buffer was added to initiate the kinase reaction and the plates were shaken and then incubated at room temperature for 120 minutes. […] Plates were shaken and centrifuged and then incubated 60 minutes at room temperature and then read on a Perkin Elmer Envision (λex=337 nm, λem=665 and 615 nm, TRF delay time=20 μs). HTRF signal=10,000*665 nm reading/615 nm reading. After normalization to untreated controls, the percent inhibition of the HTRF signal at each compound concentration was calculated. The plot of percent inhibition versus the log of compound concentration was fit with a 4-parameter dose response equation to calculate IC50 values.
# Final Reaction Conditions were:
# Examples of the instant invention were evaluated in JAK1 and JAK2 in vitro binding assays.
# [1] = HTRF biochemical assay, read-out: JAK1 IC50
# [2] = HTRF biochemical assay, read-out: JAK2 IC50
# Sequence of JAK1 (P23458 875-1153): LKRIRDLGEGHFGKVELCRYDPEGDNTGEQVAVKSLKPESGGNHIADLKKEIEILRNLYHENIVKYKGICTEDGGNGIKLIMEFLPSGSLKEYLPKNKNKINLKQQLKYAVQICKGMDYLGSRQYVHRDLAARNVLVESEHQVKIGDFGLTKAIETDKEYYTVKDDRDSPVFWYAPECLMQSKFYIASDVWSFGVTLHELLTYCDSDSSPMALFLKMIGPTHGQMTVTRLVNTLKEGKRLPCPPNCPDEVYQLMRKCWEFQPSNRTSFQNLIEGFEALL
# Sequence of JAK2 (O60674 849-1124): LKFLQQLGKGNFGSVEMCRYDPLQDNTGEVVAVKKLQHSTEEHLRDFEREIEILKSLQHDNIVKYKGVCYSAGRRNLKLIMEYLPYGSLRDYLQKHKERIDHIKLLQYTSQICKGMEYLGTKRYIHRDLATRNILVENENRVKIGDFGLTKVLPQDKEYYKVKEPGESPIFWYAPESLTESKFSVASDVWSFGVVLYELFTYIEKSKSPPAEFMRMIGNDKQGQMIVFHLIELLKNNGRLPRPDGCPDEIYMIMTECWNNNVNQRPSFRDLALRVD
SMILES,IC50 (JAK1; [1]) [nM],IC50 (JAK2; [2]) [nM],"IC50 (JAK1; JAK1 IC50, HTRF biochemical assay) [nM]","IC50 (JAK2; JAK2 IC50, HTRF biochemical assay) [nM]"
"N#C[C@H]1CCCC[C@@H]1n1nc(Nc2ccc(CNC(=O)c3cnco3)cc2)c2c(=O)[nH]ccc21 [Example 3-29, N-[4-({1-[(1S,2S)-2-cyanocyclohexyl]-4-oxo-4,5-dihydro-1H-pyrazolo[4,3-c]pyridin-3-yl}amino)benzyl]-1,3-oxazole-5-carboxamide]",0.32,1.5,,
"N#C[C@H]1CCC[C@@H]1n1nc(Nc2ccc(C(O)C(F)(F)F)cc2)c2c(=O)[nH]ccc21 (stereo partly drawn) [Example 3-98, (1S,2S)-2-(4-oxo-3-{[4-(2,2,2-trifluoro-1-hydroxyethyl)phenyl]amino}-4,5-dihydro-1H-pyrazolo[4,3-c]pyridin-1-yl)cyclopentanecarbonitrile]",0.075,0.53,,
"N#C[C@H]1CCCC[C@@H]1n1nc(Nc2ccccc2)c2c(=O)[nH]ccc21 [Example 3-25, (1S,2S)-2-[4-oxo-3-(phenylamino)-4,5-dihydro-1H-pyrazolo[4,3-c]pyridin-1-yl]cyclohexanecarbonitrile]",0.45,3.2,,
"Cc1cc(Nc2nn([C@@H]3CCCCC[C@H]3C#N)c3cc[nH]c(=O)c23)ccc1C(O)C(F)(F)F (single isomer, unassigned) [Example 15-67, (1R,2R or 1S,2S)-2-[3-({3-methyl-4-[(1S or 1R)-2,2,2-trifluoro-1-hydroxyethyl]phenyl}amino)-4-oxo-4,5-dihydro-1H-pyrazolo[4,3-c]pyridin-1-yl]cycloheptanecarbonitrile]",0.38,3.9,,
"Cc1cc(Nc2nn([C@H]3CCCC[C@@H]3C#N)c3cc[nH]c(=O)c23)ccc1C(=O)N1CCOCC1 [Example 3-68, (1S,2S)-2-(3-{[3-methyl-4-(morpholin-4-ylcarbonyl)phenyl]amino}-4-oxo-4,5-dihydro-1H-pyrazolo[4,3-c]pyridin-1-yl)cyclohexanecarbonitrile]",0.47,0.28,,
"N#C[C@H]1C[C@@H](N2CCC2)CC[C@@H]1n1nc(Nc2ccc(C(F)(F)F)cc2)c2c(=O)[nH]ccc21 [Example 5-8, (1S,2S,5S)-5-(azetidin-1-yl)-2-(4-oxo-3-((4-(trifluoromethyl)phenyl)amino)-4,5-dihydro-1H-pyrazolo[4,3-c]pyridin-1-yl)cyclohexanecarbonitrile]",0.88,22,,
"CC(C)(C)S(=O)(=O)c1ccc(Nc2nn([C@H]3CCC[C@@H]3C#N)c3cc[nH]c(=O)c23)cc1 [Example 3-106, (1S,2S)-2-(3-{[4-(tert-butylsulfonyl)phenyl]amino}-4-oxo-4,5-dihydro-1H-pyrazolo[4,3-c]pyridin-1-yl)cyclopentanecarbonitrile]",0.12,0.36,,
"CC(C)(C)OC(=O)N1[C@@H]2CC[C@H]1C[C@H](c1ccc(Nc3nn([C@H]4CCCC[C@@H]4C#N)c4cc[nH]c(=O)c34)cc1)C2 (single isomer, unassigned) [Example 3-166]",,,0.96,6.5
"CC(C)N1Cc2cc(Nc3nn([C@H]4CCCC[C@@H]4C#N)c4cc[nH]c(=O)c34)ccc2C1C (single isomer, unassigned) [Example 19-2, (1S,2S)-2-(3-(((R or S)-2-isopropyl-1-methylisoindolin-5-yl)amino)-4-oxo-4,5-dihydro-1H-pyrazolo[4,3-c]pyridin-1-yl)cyclohexanecarbonitrile]",0.47,0.45,,
"CC(C)(C)[S@+]([O-])N[C@H](c1cccc(Nc2nn([C@H]3CCCC[C@@H]3C#N)c3cc[nH]c(=O)c23)c1)C(F)(F)F [Example 3-42, N-{(1R)-1-[3-({1-[(1S,2S)-2-cyanocyclohexyl]-4-oxo-4,5-dihydro-1H-pyrazolo[4,3-c]pyridin-3-yl}amino)phenyl]-2,2,2-trifluoroethyl}-2-methylpropane-2-sulfinamide]",0.46,13,,
"CC(O)(c1ccc(Nc2nn([C@H]3CCCC[C@@H]3C#N)c3cc[nH]c(=O)c23)cc1)C(F)(F)F (single isomer, unassigned) [Example 15-12, (1S,2S)-2-[4-oxo-3-({4-[(1R or 1S)-2,2,2-trifluoro-1-hydroxy-1-methylethyl]phenyl}amino)-4,5-dihydro-1H-pyrazolo[4,3-c]pyridin-1-yl]cyclohexanecarbonitrile]",0.14,0.84,,
"N#C[C@H]1CCCC[C@@H]1n1nc(Nc2cccc(Cn3ccnn3)c2)c2c(=O)[nH]ccc21 [Example 3-26, (1S,2S)-2-(4-oxo-3-{[3-(1H-1,2,3-triazol-1-ylmethyl)phenyl]amino}-4,5-dihydro-1H-pyrazolo[4,3-c]pyridin-1-yl)cyclohexanecarbonitrile]",0.1,0.49,,
"N#C[C@H]1CCCC[C@@H]1n1nc(Nc2ccc(-c3nccs3)cc2)c2c(=O)[nH]ccc21 [Example 15-2, (1S,2S)-2-(4-oxo-3-{[4-(1,3-thiazol-2-yl)phenyl]amino}-4,5-dihydro-1H-pyrazolo[4,3-c]pyridin-1-yl)cyclohexanecarbonitrile]",0.26,3.6,,
"CC(O)c1cccc(Nc2nn([C@H]3CCCC[C@@H]3C#N)c3cc[nH]c(=O)c23)c1 (stereo partly drawn) [Example 3-31, (1S,2S)-2-(3-{[3-(1-hydroxyethyl)phenyl]amino}-4-oxo-4,5-dihydro-1H-pyrazolo[4,3-c]pyridin-1-yl)cyclohexanecarbonitrile]",0.46,1.7,,
"CCN1Cc2cc(Nc3nn([C@H]4CCCC[C@@H]4C#N)c4cc[nH]c(=O)c34)ccc2S1(=O)=O [Example 3-60, (1S,2S)-2-{3-[(2-ethyl-1,1-dioxido-2,3-dihydro-1,2-benzisothiazol-5-yl)amino]-4-oxo-4,5-dihydro-1H-pyrazolo[4,3-c]pyridin-1-yl}cyclohexanecarbonitrile]",0.044,0.41,,
"COCC(C)(O)c1cc(Nc2nn([C@H]3CCCC[C@@H]3C#N)c3cc[nH]c(=O)c23)ccc1S(C)(=O)=O (stereo partly drawn) [Example 3-85, (1S,2S)-2-(3-{[3-(1-hydroxy-2-methoxy-1-methylethyl)-4-(methylsulfonyl)phenyl]amino}-4-oxo-4,5-dihydro-1H-pyrazolo[4,3-c]pyridin-1-yl)cyclohexanecarbonitrile]",3,4.2,,
"N#C[C@H]1C[C@H](N2CCC2)CC[C@@H]1n1nc(Nc2ccc(Cl)c(F)c2)c2c(=O)[nH]ccc21 [Example 5-3, (1S,2S,5R)-5-(azetidin-1-yl)-2-(3-((4-chloro-3-fluorophenyl)amino)-4-oxo-4,5-dihydro-1H-pyrazolo[4,3-c]pyridin-1-yl)cyclohexanecarbonitrile]",1.7,40,,
"CC1(O)CN([C@H]2CC[C@H](n3nc(Nc4ccc(Cl)cc4)c4c(=O)[nH]ccc43)[C@@H](C#N)C2)C1 [Example 5-22, (1S,2S,5S)-2-(3-((4-chlorophenyl)amino)-4-oxo-4,5-dihydro-1H-pyrazolo[4,3-c]pyridin-1-yl)-5-(3-hydroxy-3-methylazetidin-1-yl)cyclohexanecarbonitrile]",0.24,4,,
"CC1(C)C(=O)Nc2cc(Nc3nn([C@H]4CCCC[C@@H]4C#N)c4cc[nH]c(=O)c34)ccc21 [Example 15-7, (1S,2S)-2-{3-[(3,3-dimethyl-2-oxo-2,3-dihydro-1H-indol-6-yl)amino]-4-oxo-4,5-dihydro-1H-pyrazolo[4,3-c]pyridin-1-yl}cyclohexanecarbonitrile]",0.11,1.4,,
"N#C[C@H]1CCCC[C@@H]1n1nc(Nc2ccc3c(c2)CCS3(=O)=O)c2c(=O)[nH]ccc21 [Example 3-59, (1S,2S)-2-{3-[(1,1-dioxido-2,3-dihydro-1-benzothiophen-5-yl)amino]-4-oxo-4,5-dihydro-1H-pyrazolo[4,3-c]pyridin-1-yl}cyclohexanecarbonitrile]",0.062,0.71,,
"CC1(C)OCC(C)(c2cccc(Nc3nn([C@H]4CCCC[C@@H]4C#N)c4cc[nH]c(=O)c34)c2)O1 (stereo partly drawn) [Example 3-38, (1S,2S)-2-{4-Oxo-3-[3-(2,2,4-trimethyl-[1,3]dioxolan-4-yl)-phenylamino]-4,5-dihydro-pyrazolo[4,3-c]pyridin-1-yl}-cyclohexanecarbonitrile]",5,16,,
"CC(C)S(=N)(=O)c1ccc(Nc2nn(C3CCC[C@@H]3C#N)c3cc[nH]c(=O)c23)cc1 (single isomer, unassigned) [Example 3-108, (1S,2S)-2-[3-({4-[(S or R)-S-(1-methylethyl)sulfonimidoyl]phenyl}amino)-4-oxo-4,5-dihydro-yl]cyclopentanecarbonitrile]",,0.5,,
"N#C[C@H]1CCCC[C@@H]1n1nc(Nc2ccc(C(O)C(F)F)cc2)c2c(=O)[nH]ccc21 (mixture of isomers) [Example 10-1, Racemic-(1S,2S)-2-(3-((4-(2,2-difluoro-1-hydroxyethyl)phenyl)amino)-4-oxo-4,5-dihydro-1H-pyrazolo[4,3-c]pyridin-1-yl)cyclohexanecarbonitrile]",,0.61,,
